In US5783597A, “2,5-disubstituted thiophenes: inhibitors of 5-lipoxygenase and inducible cyclooxygenase (COX-2) enzymes, composition and use” (Ortho Pharmaceutical Corporation, priority 1997, dated 1998):

Legend:
[1] = target: T1, Human Prostaglandin H2 Synthase Typ II (Cox-2) (Homo sapiens, UniProt P35354); test: Human Prostaglandin H2 Synthase Typ II (Cox-2) Whole Cell Assay, ECV-304 cells (Procedure III); type: cell-based; settings: ECV-304 whole cells; for IC50: PGE2 produced, read-out: Procedure III (COX-2) Wh Cell IC50; for inhibition at 10 µM: read-out: Procedure III (COX-2) Wh Cell, percent inhibition of PGE2 produced
T1 construct: endogenous in cells; host or cells: ECV-304 cells treated with PMA and ionomycin for 16 hours
T1 sequence (P35354 18-604): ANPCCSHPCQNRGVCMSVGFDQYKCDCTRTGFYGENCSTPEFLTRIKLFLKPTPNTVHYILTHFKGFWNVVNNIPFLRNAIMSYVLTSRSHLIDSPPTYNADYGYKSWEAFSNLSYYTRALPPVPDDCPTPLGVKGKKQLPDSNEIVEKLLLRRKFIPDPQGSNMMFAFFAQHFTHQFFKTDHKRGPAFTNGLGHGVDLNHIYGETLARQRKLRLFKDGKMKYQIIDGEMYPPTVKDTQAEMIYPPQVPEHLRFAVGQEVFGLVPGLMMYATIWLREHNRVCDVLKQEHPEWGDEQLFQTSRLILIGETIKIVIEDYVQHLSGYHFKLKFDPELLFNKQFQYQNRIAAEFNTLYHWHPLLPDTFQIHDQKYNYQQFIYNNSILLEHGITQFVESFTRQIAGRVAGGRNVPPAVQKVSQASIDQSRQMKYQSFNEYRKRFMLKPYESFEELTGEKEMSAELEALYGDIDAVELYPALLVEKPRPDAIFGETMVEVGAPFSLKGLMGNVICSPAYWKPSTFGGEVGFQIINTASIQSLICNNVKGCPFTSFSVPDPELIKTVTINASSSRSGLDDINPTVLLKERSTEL
Procedure: Human Prostaglandin H2 Synthase Typ II (Cox-2) Whole Cell Assay (Multiple Concentrations)
ECV-304 (human, endothelial, umbilical cord) cells are maintained in culture in a suitable medium, and are trypsinized and plated at a density of 1×10^6 cells per well of a 6 well plate prior to assay. Approximately 28 hours later, 50 μg/ml PMA and […] ionomycin (both final concentrations) are added to each well and incubated for an additional 16 hours. Vehicle or test compounds are incubated with the cells for five minutes prior to initiation of Cox-2 enzyme activity by the addition of 30 μM arachidonic acid. Ten minutes later, an aliquot of the supernatant is withdrawn and the amount of PGE2 present quantitated by radioimmunoassay. Activity, reported as percent inhibition of PGE2 produced, is calculated as follows: […]

[2] = target: T2, 5-lipoxygenase (5-LO) (Rattus norvegicus, UniProt P12527); test: RBL-1 cell 5-lipoxygenase and cyclooxygenase - Homogenate (Procedure I); type: biochemical
T2 construct: endogenous in cells; host or cells: intact RBL-1 (rat basophilic leukemia) cells, stimulated with calcium ionophore A23187
T2 sequence (P12527 1-673): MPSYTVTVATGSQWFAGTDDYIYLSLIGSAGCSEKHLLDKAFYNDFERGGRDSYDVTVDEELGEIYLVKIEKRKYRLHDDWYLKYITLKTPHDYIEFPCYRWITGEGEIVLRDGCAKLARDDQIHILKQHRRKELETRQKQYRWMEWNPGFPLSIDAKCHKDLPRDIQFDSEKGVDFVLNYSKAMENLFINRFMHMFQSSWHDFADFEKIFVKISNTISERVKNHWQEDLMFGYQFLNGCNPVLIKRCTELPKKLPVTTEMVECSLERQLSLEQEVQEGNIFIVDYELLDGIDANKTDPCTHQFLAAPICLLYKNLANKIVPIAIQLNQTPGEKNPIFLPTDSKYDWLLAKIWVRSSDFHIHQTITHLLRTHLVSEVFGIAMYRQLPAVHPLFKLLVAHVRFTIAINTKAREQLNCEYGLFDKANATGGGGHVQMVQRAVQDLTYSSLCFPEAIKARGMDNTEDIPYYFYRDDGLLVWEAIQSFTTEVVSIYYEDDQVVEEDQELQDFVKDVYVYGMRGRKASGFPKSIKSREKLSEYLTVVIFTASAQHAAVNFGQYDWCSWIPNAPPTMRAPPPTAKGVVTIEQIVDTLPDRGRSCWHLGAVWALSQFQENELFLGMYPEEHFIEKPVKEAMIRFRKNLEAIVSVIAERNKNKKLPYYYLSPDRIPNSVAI
Procedure: RBL-1 cell 5-lipoxygenase and cyclooxugenase - Homogenate
Rat basophilic leukemia cells (RBL-1; 5×10^7 viable cells/mL) were disrupted by homogenization on ice (four 20 sec bursts) with a Brinkman polytron. […] The homogenate was then centrifuged at 9,220×g for 48 minutes at 4° C. The pellet was discarded and the supernatant was saved as the source of enzymes. The supernatant was pre-incubated for five minutes at 37° C. in the presence of 2 mM of CaCl2 and compound or vehicle (1% DMSO). The conversion of AA into products by CO and LO was initiated by adding 10 μL (50 μCi) of 1-^14 C-AA to each tube and incubated at 37° C. for 20 minutes. The reaction was stopped by adjusting the pH of each sample to 3 to 3.5 with 2M formic acid. Samples were extracted with three volumes of chloroform to isolate the products of 5-LO formed during the reaction. Fractions were dried under nitrogen, then resuspended in 40 μL of chloroform and spotted onto silica gel HL plates. The plates were developed in A-9 solvent. The dried plates were analyzed using a Bioscan Imaging TLC scanner to determine the percentage of radiolabelled M converted to 5-HETE (LO product) and PGD2 (CO product) in each sample.

[3] = target: T2, 5-lipoxygenase (5-LO); test: RBL-1 cell 5-lipoxygenase and cyclooxygenase - Whole cells (Procedure II); type: cell-based
Procedure: RBL-1 Cell 5-Lipoxygenase and cyclooxygenase - Whole cells
The ability to inhibit 5-LO and CO in intact RBL-1 cells was also evaluated. […] Cells were collected by centrifugation, washed once in HBSS, and resuspended at a concentration of 1×10^5 cells/mL. Cells were incubated in the presence of vehicle or drug then centrifuged at 800×g for 10 minutes at 4° C. The supernatant was removed by aspiration and the cells were resuspended in 0.5 mL of HBSS. […] The conversion of M to 5-LO products was initiated by the addition of 10 μL (50 uCi) of 1-^14 C-AA. Products were isolated by acidification and extraction, followed by thin layer chromatography analysis as described above. Radioactive areas corresponding to authentic 5-LO (5-HETE) and CO (PGD2) products were quantitated by the Bioscan 2000 Imaging System.

[4] = RBL-1 homogenate supernatant, 5-HETE, read-out: Procedure I (5-LO) Homog. IC50
[5] = intact RBL-1 cells, 5-HETE, read-out: Procedure II (5-LO) Wh Cell IC50

SMILES | IC50 [1] [nM] | IC50 [2, 4] [nM] | IC50 [3, 5] [nM] | inhibition at 10 µM [1] [%] | IC50 [2] [nM] | IC50 [3] [nM]
CS(=O)(=O)Nc1ccc(Oc2cccc3c2CCCC3)s1 [Example 23] | 10000 | – | – | – | – | –
CS(=O)(=O)Nc1ccc(Oc2cccc(C(F)(F)F)c2)s1 [Example 10] | 1020 | 60 | 780 | – | – | –
CS(=O)(=O)Nc1ccc(-c2ccc(F)cc2)s1 [Example 32, N-5-[(4-fluoro)phenyl-thien-2-yl]methanesulfonamide] | – | 150 | 2100 | 3 | – | –
CS(=O)(=O)Nc1ccc(Oc2ccc3ccccc3c2)s1 [Example 22] | 10000 | 60 | 770 | – | – | –
CS(=O)(=O)Nc1ccc(Oc2cc(C(F)(F)F)cc(C(F)(F)F)c2)s1 [Example 18] | – | 310 | 6500 | 8 | – | –
CCCCCSc1ccc(NS(C)(=O)=O)s1 [Example 30] | 2760 | 40 | 630 | – | – | –
CS(=O)(=O)Nc1ccc(Oc2cc(C(F)(F)F)ccc2Cl)s1 [Example 19] | – | – | – | 29 | 140 | 1800
Cc1cccc(Oc2ccc(NS(C)(=O)=O)s2)c1C [Example 9] | – | 60 | 660 | 54 | – | –
CS(=O)(=O)Nc1ccc(SC2CCCCC2)s1 [Example 29] | 9100 | 70 | 2390 | – | – | –
CS(=O)(=O)Nc1ccc(Oc2ccc(S(C)(=O)=O)cc2)s1 [Example 5] | – | 1800 | 38500 | 0 | – | –
CS(=O)(=O)Nc1ccc(Oc2ccc(Cl)cc2Cl)s1 [Example 13] | 5800 | 90 | 650 | – | – | –
CS(=O)(=O)Nc1ccc(Oc2cccc(F)c2)s1 [Example 3] | – | 160 | 490 | 13 | – | –
CC(C)S(=O)(=O)Nc1ccc(Oc2ccccc2)s1 [Example 25] | – | 50 | 1040 | 16 | – | –
CSc1ccc(Oc2ccc(NS(C)(=O)=O)s2)cc1 [Example 4] | – | 100 | 660 | 39 | – | –
CS(=O)(=O)Nc1ccc(Cc2ccccc2)s1 [Example 31, N-(5-Benzylthien-2-yl)methanesulfonamide] | – | 110 | 380 | 45 | – | –
CS(=O)(=O)Nc1ccc(Oc2cccc3ccccc23)s1 [Example 21] | 3000 | 70 | 800 | – | – | –

SMILES | IC50 [1] [nM] | IC50 [2, 4] [nM] | IC50 [3, 5] [nM] | inhibition at 10 µM [1] [%] | IC50 [2] [nM] | IC50 [3] [nM]
CS(=O)(=O)Nc1ccc(Oc2ccc(F)cc2Br)s1 [Example 17] | 5290 | 60 | 1400 | – | – | –
CS(=O)(=O)Nc1ccc(Oc2ccc(F)cc2F)s1 [Example 14] | 1970 | 150 | 730 | – | – | –
CS(=O)(=O)Nc1ccc(Oc2ccc(F)c(Cl)c2)s1 [Example 6] | 5300 | 30 | 890 | – | – | –
CS(=O)(=O)Nc1ccc(Oc2ccc(Cl)cc2)s1 [Example 12] | 18000 | 75 | 660 | – | – | –
CC(C)c1cccc(Oc2ccc(NS(C)(=O)=O)s2)c1 [Example 20] | – | 610 | 4700 | 36 | – | –
CS(=O)(=O)Nc1ccc(Sc2ccccc2)s1 [Example 28] | – | 190 | 700 | 33 | – | –
CCCCS(=O)(=O)Nc1ccc(Oc2ccccc2)s1 [Example 24] | 10000 | 360 | 1120 | – | – | –
CS(=O)(=O)Nc1ccc(-c2ccccc2)s1 [Example 33, N-5-[phenyl-thien-2-yl]methanesulfonamide] | – | 110 | 790 | 31 | – | –
CS(=O)(=O)Nc1ccc(Oc2ccccc2)s1 [Example 2] | 4220 | 70 | 470 | – | – | –
O=S(=O)(Nc1ccc(Oc2ccccc2)s1)c1ccccc1 [Example 27] | – | 100 | 900 | 44 | – | –
Cc1cccc(Oc2ccc(NS(C)(=O)=O)s2)c1 [Example 15] | 1690 | 120 | 310 | – | – | –
COc1ccc(Oc2ccc(NS(C)(=O)=O)s2)cc1 [Example 7] | – | 20 | 1450 | 0 | – | –
CS(=O)(=O)Nc1ccc(Oc2cccc(Cl)c2)s1 [Example 8] | 10300 | 60 | 500 | – | – | –
CCCCCCCCS(=O)(=O)Nc1ccc(Oc2ccccc2)s1 [Example 26] | – | 300 | 2900 | 8 | – | –
Cc1cc(F)ccc1Oc1ccc(NS(C)(=O)=O)s1 [Example 16] | 1900 | 90 | 1090 | – | – | –
Cc1cc(Oc2ccc(NS(C)(=O)=O)s2)ccc1F [Example 11] | 1180 | 20 | 310 | – | – | –
